Laboratory results reported in patent US10604484B2, “Indolone compounds and their use as AMPA receptor modulators” (Janssen Pharmaceutica NV, priority 2015, dated 2020).

target: T1, GluA1o-γ8 (Homo sapiens, UniProt P42261+Q8WXS5); test: Calcium flux assay (FLIPR), inhibition of glutamate response of GluA1o-γ8 channel in HEK293 cells; assay type: cell-based; conditions: HEK293 cells stably expressing GRIA1o-CACNG8 fusion; 15 μM glutamate; pIC50 = negative log of the IC50 in molar; read-out: GluR1-γ8 pIC50 (converted)
T1 construct: expressed in transfected cells
T1 sequence (P42261+Q8WXS5 fused): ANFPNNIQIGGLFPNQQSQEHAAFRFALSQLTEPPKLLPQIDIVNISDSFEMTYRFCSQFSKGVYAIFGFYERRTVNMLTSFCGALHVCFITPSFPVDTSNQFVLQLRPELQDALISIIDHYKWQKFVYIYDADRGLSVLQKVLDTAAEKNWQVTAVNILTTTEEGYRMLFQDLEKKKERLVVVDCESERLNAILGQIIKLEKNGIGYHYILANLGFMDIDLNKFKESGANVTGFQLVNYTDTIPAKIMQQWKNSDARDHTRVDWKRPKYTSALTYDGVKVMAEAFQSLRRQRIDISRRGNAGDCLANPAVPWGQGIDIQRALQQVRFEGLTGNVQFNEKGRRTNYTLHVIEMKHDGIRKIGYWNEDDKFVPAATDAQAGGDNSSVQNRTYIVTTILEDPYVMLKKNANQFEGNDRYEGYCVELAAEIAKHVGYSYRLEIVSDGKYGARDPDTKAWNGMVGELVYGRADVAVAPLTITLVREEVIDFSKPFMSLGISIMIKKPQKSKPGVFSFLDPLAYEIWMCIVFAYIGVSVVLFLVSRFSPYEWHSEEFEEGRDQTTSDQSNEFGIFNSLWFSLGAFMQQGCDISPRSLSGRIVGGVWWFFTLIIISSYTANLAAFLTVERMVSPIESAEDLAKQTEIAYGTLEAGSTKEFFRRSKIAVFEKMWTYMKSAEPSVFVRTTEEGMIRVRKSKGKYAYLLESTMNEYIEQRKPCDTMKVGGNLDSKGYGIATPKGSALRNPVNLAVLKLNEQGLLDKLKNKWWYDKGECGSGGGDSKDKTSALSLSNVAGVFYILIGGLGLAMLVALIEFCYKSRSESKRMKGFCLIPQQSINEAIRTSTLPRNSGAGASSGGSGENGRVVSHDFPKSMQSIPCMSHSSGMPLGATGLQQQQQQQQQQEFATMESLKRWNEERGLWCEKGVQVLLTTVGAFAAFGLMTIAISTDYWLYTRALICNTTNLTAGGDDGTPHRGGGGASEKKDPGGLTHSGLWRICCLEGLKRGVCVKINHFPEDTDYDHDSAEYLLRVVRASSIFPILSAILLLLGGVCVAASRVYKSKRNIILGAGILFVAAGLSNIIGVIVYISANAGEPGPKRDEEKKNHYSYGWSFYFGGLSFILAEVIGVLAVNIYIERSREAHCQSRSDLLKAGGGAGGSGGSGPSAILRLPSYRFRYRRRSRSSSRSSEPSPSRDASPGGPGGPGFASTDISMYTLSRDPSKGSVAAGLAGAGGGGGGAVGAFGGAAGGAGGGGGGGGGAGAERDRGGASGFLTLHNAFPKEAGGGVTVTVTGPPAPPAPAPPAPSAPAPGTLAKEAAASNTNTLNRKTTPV
From the text: This assay was used to test compounds for their ability to inhibit TARP γ8 dependent AMPA receptor activity. The AMPA receptor is a non-selective cation channel activated by glutamate. Ionotropic glutamate receptors normally desensitize too rapidly to allow detectable calcium influx in a FLIPR assay (Strange et al. (2006). “Functional characterisation of homomeric ionotropic glutamate receptors GluR1-GluR6 in a fluorescence-based high throughput screening assay.” Comb Chem High Throughput Screen 9(2): 147-158). But, this desensitization is incomplete, and a substantial steady-state current remains in the sustained presence of glutamate (Cho et al. (2007). “Two families of TARP isoforms that have distinct effects on the kinetic properties of AMPA receptors and synaptic currents.” Neuron 55(6): 890-904).
An in vitro assay was used to determine the potency of test compounds as inhibitors of the glutamate response of the channel formed by GluA1o-γ8. To ensure a 1:1 stoichiometry of GluA1o and γ8 subunits in the expressed channel, a fusion of the cDNAs for GRIA1o and CACNG8 was used. Following Shi et al (2009) “The stoichiometry of AMPA receptors and TARPs varies by neuronal cell type.” Neuron 62(5): 633-640), the C-terminus of the cDNA for GRIA1o was fused to the N-terminus of the cDNA for γ8. The linker sequence was QQQQQQQQQQEFAT. Channels expressed with this construct appear to have similar properties to channels formed by co-expression of GRIA1o with an excess of CACNG8 (Shi et al. 2009). A clonal cell line in HEK293 cells stably expressing this construct, with a geneticin selection marker, was generated for use in this assay. Cell expressing the GRIA1o-CACNG8 fusion construct were grown in a monolayer in 96- or 384-well microtiter plates. They were washed with assay buffer (135 mM NaCl, 4 mM KCl, 3 mM CaCl2, 1 mM MgCl2, 5 mM glucose, 10 mM HEPES, pH 7.4, 300 mOs) using a Biotek EL405 plate washer. The cells were then loaded with a calcium-sensitive dye (Calcium-5 or Calcium-6, Molecular Devices) and the test compounds at a range of concentrations. Calcium flux following the addition of 15 μM glutamate was monitored using a Molecular Devices FLIPR Tetra.
The fluorescence in each well was normalized to the fluorescence of negative and positive control wells. The negative control wells had no added compounds, and the positive control wells had been incubated with 10 μM CP465022 (a non-subtype-selective AMPA receptor antagonist) (Lazzaro et al. (2002). “Functional characterization of CP-465,022, a selective, noncompetitive AMPA receptor antagonist.” Neuropharmacology 42(2): 143-153). The responses to glutamate as functions of the test compound concentrations were fitted to a four-parameter logistic function. The fitted parameter corresponding to the midpoint was taken to be the potency of inhibition of the compound. The data in Table 4 below illustrates the observed potentcy for the compounds described herein. pIC50 refers to the negative log of the IC50 in molar.

Structure (SMILES) | IC50
Cc1cc(-c2c(C)ccnc2C)cc2c1NC(=O)C2 [Example 151, 5-(2,4-Dimethyl-3-pyridyl)-7-methyl-indolin-2-one] | 631 nM
Cc1cc(-c2c(Cl)ccnc2Cl)cc2c1NC(=O)C2 [Example 152, 5-(2,4-Dichloro-3-pyridyl)-7-methyl-indolin-2-one] | 3.16 nM
O=C1Cc2cc(-c3c(Cl)cccc3OC(F)(F)F)cc(Cl)c2N1 [Example 153, 7-Chloro-5-[2-chloro-6-(trifluoromethoxy)phenyl]indolin-2-one] | 0.0794 nM
O=C1Cc2cc(-c3c(Cl)cccc3OC(F)F)cc(Cl)c2N1 [Example 154, 7-Chloro-5-[2-chloro-6-(difluoromethoxy)phenyl]indolin-2-one] | 0.316 nM
CC(C)(C#N)c1cccc(Cl)c1-c1cc(Cl)c2c(c1)CC(=O)N2 [Example 155, 2-[3-Chloro-2-(7-chloro-2-oxo-indolin-5-yl)phenyl]-2-methyl-propanenitrile] | 0.158 nM
N#Cc1ccc(Cl)c(-c2cc(Cl)c3c(c2)CC(=O)N3)c1OC(F)(F)F [Example 156, 4-Chloro-3-(7-chloro-2-oxo-indolin-5-yl)-2-(trifluoromethoxy)benzonitrile] | 0.0794 nM
O=C1Cc2cc(-c3c(Cl)cncc3OC(F)(F)F)cc(Cl)c2N1 [Example 157, 7-Chloro-5-(3-chloro-5-(trifluoromethoxy)pyridin-4-yl)indolin-2-one] | 6.31 nM
O=C1Cc2cc(-c3c(Cl)cncc3OC(F)F)cc(Cl)c2N1 [Example 158, 7-Chloro-5-[3-chloro-5-(difluoromethoxy)-4-pyridyl]indolin-2-one] | 7.94 nM
O=C1Cc2cc(-c3c(Cl)cncc3Cl)cc(Cl)c2N1 [Example 159, 7-Chloro-5-(3,5-dichloro-4-pyridyl)indolin-2-one] | 7.94 nM
Cc1ccnc(Cl)c1-c1cc(Cl)c2c(c1)CC(=O)N2 [Example 160, 7-Chloro-5-(2-chloro-4-methyl-3-pyridyl)indolin-2-one] | 6.31 nM
Cc1ccnc(C)c1-c1cc(Cl)c2c(c1)CC(=O)N2 [Example 161, 7-Chloro-5-(2,4-dimethyl-3-pyridyl)indolin-2-one] | 158 nM
COc1nccc(C)c1-c1cc(Cl)c2c(c1)CC(=O)N2 [Example 162, 7-Chloro-5-(2-methoxy-4-methyl-3-pyridyl)indolin-2-one] | 7.94 nM
O=C1Cc2cc(-c3c(Cl)ccnc3Cl)cc(Cl)c2N1 [Example 163, 7-Chloro-5-(2,4-dichloro-3-pyridyl)indolin-2-one] | 1.58 nM
Cc1cccc(C#N)c1-c1cc(Cl)c2c(c1)CC(=O)N2 [Example 164, 2-(7-Chloro-2-oxo-indolin-5-yl)-3-methyl-benzonitrile] | 1.58 nM
Cc1cccc(Cl)c1-c1cc(Cl)c2c(c1)CC(=O)N2 [Example 165, 7-Chloro-5-(2-chloro-6-methyl-phenyl)indolin-2-one] | 0.0631 nM
Cc1cccc(F)c1-c1cc(Cl)c2c(c1)CC(=O)N2 [Example 166, 7-Chloro-5-(2-fluoro-6-methyl-phenyl)indolin-2-one] | 0.794 nM
Cc1cccc(C(F)(F)F)c1-c1cc(Cl)c2c(c1)CC(=O)N2 [Example 167, 7-Chloro-5-[2-methyl-6-(trifluoromethyl)phenyl]indolin-2-one] | 0.316 nM
CCc1cc(-c2c(Cl)cccc2OC(F)(F)F)cc2c1NC(=O)C2 [Example 168, 5-[2-Chloro-6-(trifluoromethoxy)phenyl]-7-ethyl-indolin-2-one] | 0.0501 nM
CCc1cc(-c2c(C)cccc2C#N)cc2c1NC(=O)C2 [Example 169, 2-(7-Ethyl-2-oxo-indolin-5-yl)-3-methyl-benzonitrile] | 3.16 nM
CCc1cc(-c2c(C)cccc2Cl)cc2c1NC(=O)C2 [Example 170, 5-(2-Chloro-6-methyl-phenyl)-7-ethyl-indolin-2-one] | 0.251 nM
CCc1cc(-c2c(C)cccc2F)cc2c1NC(=O)C2 [Example 171, 7-Ethyl-5-(2-fluoro-6-methyl-phenyl)indolin-2-one] | 1.58 nM
CCc1cc(-c2c(C)cccc2C(F)(F)F)cc2c1NC(=O)C2 [Example 172, 7-Ethyl-5-[2-methyl-6-(trifluoromethyl)phenyl]indolin-2-one] | 0.2 nM
CCc1cc(-c2c(C)cncc2C)cc2c1NC(=O)C2 [Example 173, 5-(3,5-Dimethyl-4-pyridyl)-7-ethyl-indolin-2-one] | 15.8 nM
CCc1cc(-c2c(Cl)cncc2Cl)cc2c1NC(=O)C2 [Example 174, 5-(3,5-Dichloro-4-pyridyl)-7-ethyl-indolin-2-one] | 5.01 nM
N#Cc1cc(-c2c(Cl)cccc2OC(F)(F)F)cc2c1NC(=O)C2 [Example 175, 5-[2-Chloro-6-(trifluoromethoxy)phenyl]-2-oxo-indoline-7-carbonitrile] | 0.631 nM
O=C1Cc2cc(-c3c(Cl)cccc3OC(F)(F)F)cc(C(F)(F)F)c2N1 [Example 176, 5-[2-Chloro-6-(trifluoromethoxy)phenyl]-7-(trifluoromethyl)indolin-2-one] | 0.501 nM
O=C1Cc2cc(-c3c(Cl)cccc3OC(F)(F)F)cc(OC(F)(F)F)c2N1 [Example 177, 5-[2-Chloro-6-(trifluoromethoxy)phenyl]-7-(trifluoromethoxy)indolin-2-one] | 0.2 nM
COc1cc(-c2c(Cl)cccc2OC(F)(F)F)cc2c1NC(=O)C2 [Example 178, 5-[2-Chloro-6-(trifluoromethoxy)phenyl]-7-methoxy-indolin-2-one] | 0.794 nM
COC1CCN(c2cccc(-c3ccc4c(c3)CC(=O)N4)c2Cl)CC1 [Example 179, 5-[2-Chloro-3-(4-methoxy-1-piperidyl)phenyl]indolin-2-one] | 6310 nM
